Reference: the NIST ThermoML archive (doi:10.1021/je700670k)

Conditions: Liquid, Vibrating tube method

CCC[N+]1(C)CCCCC1.O=S(=O)([N-]S(=O)(=O)C(F)(F)F)C(F)(F)F
mass density [kg/m3]
Conditions	293.15 K	303.15 K	313.15 K	323.15 K	333.15 K	353.15 K	393.15 K
100 kPa	1416.9	1407.2	1397.4	1387.6	1377	1358.5	1322.3
1000 kPa	1417.6	1407.8	1398.1	1388.3	1377.8	1359.3	1323.2
2000 kPa	1418.3	1408.6	1398.9	1389.1	1378.6	1360.2	1324.3
3000 kPa	1419	1409.3	1399.5	1389.9	1379.3	1361.1	1325.3
4000 kPa	1419.6	1410	1400.2	1390.6	1380.1	1361.9	1326.2
5000 kPa	1420.3	1410.7	1401	1391.4	1380.9	1362.8	1327.3
7500 kPa	1422	1412.5	1402.8	1393.2	1382.8	1364.7	1329.7
10000 kPa	1423.8	1414.3	1404.7	1395.1	1384.8	1366.7	1331.8
15000 kPa	1427.1	1417.7	1408.2	1398.7	1388.5	1370.7	1336.3
20000 kPa	1430.4	1421.1	1411.7	1401.9	1392.3	1374.7	1340.7
25000 kPa	1433.7	1424.4	1415.1	1405	1396	1378.4	1344.8
30000 kPa	1436.8	1427.6	1418.4	1408.6	1399.5	1382.1	1348.9
35000 kPa	1439.9	1430.7	1421.7	1412.1	1403	1385.7	1353

CCn1cc[n+](C)c1.O=S(=O)([O-])C(F)(F)F [1-ethyl-3-methylimidazolium trifluoromethanesulfonate]
mass density [kg/m3]
Conditions	293.15 K	303.15 K	313.15 K	323.15 K	333.15 K	353.15 K	393.15 K
100 kPa	1379.6	1370.2	1361.1	1352	1342.8	1325.3	1291.1
1000 kPa	1380	1370.7	1361.6	1352.5	1343.3	1325.9	1291.7
2000 kPa	1380.6	1371.5	1362.2	1353.2	1344	1326.6	1292.4
3000 kPa	1381.1	1372.1	1362.9	1353.8	1344.6	1327.2	1293.2
4000 kPa	1381.8	1372.7	1363.5	1354.4	1345.3	1327.9	1293.9
5000 kPa	1382.5	1373.2	1364.1	1355.1	1346	1328.6	1294.5
7500 kPa	1383.9	1374.6	1365.7	1356.7	1347.6	1330.3	1296.4
10000 kPa	1385.4	1376.1	1367.3	1358.2	1349.2	1332	1298.1
15000 kPa	1388.2	1379	1370.2	1361.2	1352.3	1335.3	1302
20000 kPa	1391	1381.9	1373.1	1364.2	1355.4	1338.5	1305.2
25000 kPa	1393.7	1384.7	1376	1367.2	1358.4	1341.9	1308.7
30000 kPa	1396.4	1387.5	1378.8	1370.1	1361.4	1344.8	1312
35000 kPa	1399.1	1390.2	1381.6	1372.9	1364.3	1347.8	1315.3

CCCC[N+]1(C)CCCC1.O=S(=O)([N-]S(=O)(=O)C(F)(F)F)C(F)(F)F
mass density [kg/m3]
Conditions	293.15 K	303.15 K	313.15 K	323.15 K	333.15 K	353.15 K	393.15 K
100 kPa	1409.1	1399.3	1389.5	1379.8	1370.2	1351.5	1315.2
1000 kPa	1409.7	1399.9	1390.1	1380.4	1370.9	1352.3	1316.1
2000 kPa	1410.5	1400.7	1390.9	1381.2	1371.7	1353.2	1317.1
3000 kPa	1411.2	1401.4	1391.7	1382	1372.5	1354.1	1318.1
4000 kPa	1411.9	1402.2	1392.5	1382.8	1373.4	1354.9	1319.1
5000 kPa	1412.6	1402.9	1393.3	1383.6	1374.2	1355.8	1320
7500 kPa	1414.4	1404.8	1395.2	1385.6	1376.1	1357.9	1322.5
10000 kPa	1416.1	1406.6	1397	1387.5	1378.1	1360	1324.8
15000 kPa	1419.6	1410.1	1400.7	1391.3	1382	1364.1	1329.5
20000 kPa	1423	1413.6	1404.3	1394.9	1385.8	1368.1	1333.7
25000 kPa	1426.3	1417	1407.7	1398.5	1389.5	1371.9	1338
30000 kPa	1429.6	1420.3	1411.1	1402	1393.1	1375.7	1342.2
35000 kPa	1432.8	1423.6	1414.4	1405.4	1396.6	1379.4	1346.2
